For this assay, the system named is P388 leukemia ip, CD2F1 mice, survival T/C. In words: NCI In Vivo Anticancer Drug Screen. Data for tumor model P388 Leukemia (intraperitoneal) in CD2F1 (CDF1) mice. The following applies: endpoint: median survival time, higher = longer survival. In a few lines:
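Mice carrying the transplanted tumor received test compound or vehicle. Survival was recorded in each group, and the value is the treated-group measurement divided by that of the vehicle-treated control group.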

Where [1] appears, read: dose: 25.0 mg/kg/injection, schedule: Q01DX009 (ip), vehicle: saline with Tween-80.
The mark [2] stands for this setting: dose: 100.0 mg/kg/injection, schedule: Q01DX009 (ip), vehicle: saline with Tween-80.
The mark [3] stands for this setting: dose: 200.0 mg/kg/injection, schedule: Q01DX009 (ip), vehicle: saline with Tween-80.

For 7 compounds, T/C results are on record in PubChem BioAssay AID330 (DTP/NCI, 2004).

“And” between values parts separate entries of the source, which are not always exact repeats. Equal values may be shown once. Inconclusive results and toxic doses are left out.

In the case of `CN1CCC/C1=C\C(=O)c1ccncc1`, the T/C is 96 % of control (dose: 50.0 mg/kg/injection, schedule: Q01DX005 (ip), vehicle: saline); 112 % of control (dose: 100.0 mg/kg/injection, schedule: Q01DX005 (ip), vehicle: saline); 124 % of control (dose: 200.0 mg/kg/injection, schedule: Q01DX005 (ip), vehicle: saline).

Regarding `CC1(CO)C(O)CCC2(C)C1CCC1CC3CC12CCC3(O)CO` (configuration not stated), the T/C runs as follows: (dose: 0.78 mg/kg/injection, schedule: Q03HX024 (ip), vehicle: Klucel (hydroxypropylcellulose) (HPC)) 106 % of control; (dose: 0.78 mg/kg/injection, schedule: Q03HX024 (oral), vehicle: Klucel (hydroxypropylcellulose) (HPC)) 100 % of control; (dose: 1.56 mg/kg/injection, schedule: Q03HX024 (ip), vehicle: Klucel (hydroxypropylcellulose) (HPC)) 93 % of control; (dose: 1.56 mg/kg/injection, schedule: Q03HX024 (oral), vehicle: Klucel (hydroxypropylcellulose) (HPC)) 99 % of control; (dose: 3.12 mg/kg/injection, schedule: Q03HX024 (ip), vehicle: Klucel (hydroxypropylcellulose) (HPC)) 100 % of control; (dose: 3.12 mg/kg/injection, schedule: Q03HX024 (oral), vehicle: Klucel (hydroxypropylcellulose) (HPC)) 102 % of control. In addition, the T/C was 102 % of control (dose: 6.25 mg/kg/injection, schedule: Q03HX024 (ip), vehicle: Klucel (hydroxypropylcellulose) (HPC)); 98 % of control (dose: 6.25 mg/kg/injection, schedule: Q03HX024 (oral), vehicle: Klucel (hydroxypropylcellulose) (HPC)); 109 % of control and 113 % of control (dose: 12.5 mg/kg/injection, schedule: Q01DX009 (ip), vehicle: Klucel (hydroxypropylcellulose) (HPC)); 106 % of control (dose: 12.5 mg/kg/injection, schedule: Q03HX024 (ip), vehicle: Klucel (hydroxypropylcellulose) (HPC)); 100 % of control (dose: 12.5 mg/kg/injection, schedule: Q03HX024 (oral), vehicle: Klucel (hydroxypropylcellulose) (HPC)); 114 % of control and 91 % of control (dose: 25.0 mg/kg/injection, schedule: Q01DX009 (ip), vehicle: Klucel (hydroxypropylcellulose) (HPC)). Moreover, the T/C by setting is: under setting [1], 112 % of control; (dose: 25.0 mg/kg/injection, schedule: Q03HX024 (ip), vehicle: Klucel (hydroxypropylcellulose) (HPC)) 119 % of control; (dose: 25.0 mg/kg/injection, schedule: Q03HX024 (oral), vehicle: Klucel (hydroxypropylcellulose) (HPC)) 100 % of control; (dose: 25.0 mg/kg/injection, schedule: Q04DX003 (ip), vehicle: Klucel (hydroxypropylcellulose) (HPC)) 100 % of control; (dose: 30.0 mg/kg/injection, schedule: Q01DX005 (iv), vehicle: saline with Tween-80) 109 % of control; (dose: 50.0 mg/kg/injection, schedule: Q01DX009 (ip), vehicle: saline with Tween-80) 115 % of control. Also, the T/C (dose: 50.0 mg/kg/injection, schedule: Q03HX024 (ip), vehicle: Klucel (hydroxypropylcellulose) (HPC)) is 120 % of control; the T/C (dose: 50.0 mg/kg/injection, schedule: Q03HX024 (oral), vehicle: Klucel (hydroxypropylcellulose) (HPC)) was 101 % of control; the T/C (dose: 50.0 mg/kg/injection, schedule: Q04DX002 (ip), vehicle: Klucel (hydroxypropylcellulose) (HPC)) was 97 % of control; the T/C (dose: 50.0 mg/kg/injection, schedule: Q04DX003 (ip), vehicle: Klucel (hydroxypropylcellulose) (HPC)) was 103 % of control; the T/C (dose: 60.0 mg/kg/injection, schedule: Q01DX005 (iv), vehicle: saline with Tween-80) is 107 % of control; the T/C (dose: 60.0 mg/kg/injection, schedule: Q01DX005 (oral), vehicle: saline with Tween-80) is 107 % of control. Also, the T/C (dose: 75.0 mg/kg/injection, schedule: Q04DX002 (ip), vehicle: Klucel (hydroxypropylcellulose) (HPC)) was 105 % of control; the T/C under setting [2] is 121 % of control; the T/C (dose: 100.0 mg/kg/injection, schedule: Q03HX024 (oral), vehicle: Klucel (hydroxypropylcellulose) (HPC)) was 111 % of control; the T/C (dose: 100.0 mg/kg/injection, schedule: Q04DX002 (ip), vehicle: Klucel (hydroxypropylcellulose) (HPC)) is 100 % of control; the T/C (dose: 100.0 mg/kg/injection, schedule: Q04DX003 (ip), vehicle: Klucel (hydroxypropylcellulose) (HPC)) was 114 % of control; the T/C (dose: 120.0 mg/kg/injection, schedule: Q01DX005 (iv), vehicle: saline with Tween-80) was 100 % of control. For the same compound, the T/C was 103 % of control (dose: 120.0 mg/kg/injection, schedule: Q01DX005 (oral), vehicle: saline with Tween-80); 111 % of control (dose: 150.0 mg/kg/injection, schedule: Q04DX002 (ip), vehicle: Klucel (hydroxypropylcellulose) (HPC)); 92 % of control and 96 % of control (dose: 200.0 mg/kg/injection, schedule: Q01DX009 (ip), vehicle: Klucel (hydroxypropylcellulose) (HPC)); 105 % of control under setting [3]; 100 % of control (dose: 200.0 mg/kg/injection, schedule: Q01DX009 (oral), vehicle: saline with Tween-80); 105 % of control (dose: 200.0 mg/kg/injection, schedule: Q04DX002 (ip), vehicle: Klucel (hydroxypropylcellulose) (HPC)). Further, the T/C by setting is: (dose: 200.0 mg/kg/injection, schedule: Q04DX003 (ip), vehicle: Klucel (hydroxypropylcellulose) (HPC)) 119 % of control; (dose: 240.0 mg/kg/injection, schedule: Q01DX005 (ip), vehicle: saline with Tween-80) 109 % of control; (dose: 240.0 mg/kg/injection, schedule: Q01DX005 (iv), vehicle: saline with Tween-80) 106 % of control; (dose: 240.0 mg/kg/injection, schedule: Q01DX005 (oral), vehicle: saline with Tween-80) 102 % of control; (dose: 300.0 mg/kg/injection, schedule: Q04DX002 (ip), vehicle: Klucel (hydroxypropylcellulose) (HPC)) 115 % of control; (dose: 400.0 mg/kg/injection, schedule: Q01DX009 (oral), vehicle: saline with Tween-80) 103 % of control. The T/C is 117 % of control (dose: 400.0 mg/kg/injection, schedule: Q04DX002 (ip), vehicle: Klucel (hydroxypropylcellulose) (HPC)); 107 % of control (dose: 480.0 mg/kg/injection, schedule: Q01DX005 (oral), vehicle: saline with Tween-80); 117 % of control (dose: 600.0 mg/kg/injection, schedule: Q04DX002 (ip), vehicle: Klucel (hydroxypropylcellulose) (HPC)); 103 % of control (dose: 800.0 mg/kg/injection, schedule: Q01DX009 (oral), vehicle: saline with Tween-80); 108 % of control (dose: 800.0 mg/kg/injection, schedule: Q04DX002 (ip), vehicle: Klucel (hydroxypropylcellulose) (HPC)); 102 % of control (dose: 800.0 mg/kg/injection, schedule: Q04DX003 (ip), vehicle: Klucel (hydroxypropylcellulose) (HPC)). Also, the T/C (dose: 1200.0 mg/kg/injection, schedule: Q04DX002 (ip), vehicle: Klucel (hydroxypropylcellulose) (HPC)) is 118 % of control and the T/C (dose: 1600.0 mg/kg/injection, schedule: Q01DX009 (oral), vehicle: saline with Tween-80) is 88 % of control.

Turning to `c1ccc2c(SCCCCCCCCCCCCSc3c4ccccc4nc4ccccc34)c3ccccc3nc2c1`, the T/C runs as follows: (dose: 60.0 mg/kg/injection, schedule: Q01DX005 (ip), vehicle: Klucel (hydroxypropylcellulose) (HPC)) 104 % of control; (dose: 120.0 mg/kg/injection, schedule: Q01DX005 (ip), vehicle: Klucel (hydroxypropylcellulose) (HPC)) 98 % of control; (dose: 240.0 mg/kg/injection, schedule: Q01DX005 (ip), vehicle: Klucel (hydroxypropylcellulose) (HPC)) 90 % of control.

For the compound `Cc1cc(NCCCN(C)C)c2ccc3c(ccc4c(NCCCN(C)C)cc(C)nc43)c2n1`, the T/C reads like this: (dose: 12.5 mg/kg/injection, schedule: Q01DX009 (ip), vehicle: saline with Tween-80) 98 % of control; under setting [1], 118 % of control.

Take `NC(COC(c1ccccc1)(c1ccccc1)c1ccccc1)C(=O)O` (configuration not stated): the T/C was 118 % of control (dose: 100.0 mg/kg/injection, schedule: Q04DX003 (ip), vehicle: saline) and 154 % of control (dose: 200.0 mg/kg/injection, schedule: Q04DX003 (ip), vehicle: saline).

As to `OCc1c(CO)c(-c2ccc(Cl)c(Cl)c2)n2c1CCC2`, the T/C reads like this: (dose: 13.5 mg/kg/injection, schedule: Q01DX009 (ip), vehicle: saline with Tween-80) 107 % of control; (dose: 27.0 mg/kg/injection, schedule: Q01DX009 (ip), vehicle: saline with Tween-80) 109 % of control; (dose: 54.0 mg/kg/injection, schedule: Q01DX009 (ip), vehicle: saline with Tween-80) 109 % of control; under setting [2], 116 % of control and 118 % of control; under setting [3], 116 % of control.

Take `NC1C(=O)Nc2ccccc21` (configuration not stated): the T/C by setting is: (dose: 60.0 mg/kg/injection, schedule: Q01DX005 (ip), vehicle: saline) 95 % of control; (dose: 120.0 mg/kg/injection, schedule: Q01DX005 (ip), vehicle: saline) 103 % of control.
